Data set [1] can be described thus: Stability test for the solid dispersions (content by HPLC).
For data set [2] the following is noted: rats; cited from earlier work.

Turning to porphyrin iron [API], in data set [1] (open, 25° C. 60% RH), the “Content, stability study 0 day” value stood at 100.9%; the “Content, stability study 1 day” value is listed as 98.0%; the “Content, stability study 3 days” value is 98.7%; the “Content, stability study 7 days” value is given as 100.9%. The “Content, stability study 35 days” value in data set [1] (open, 25° C. 60% RH) is listed as 98.8%. Also, in data set [1] (open, 40° C. 75% RH), the “Content, stability study 0 day” value stood at 100.9%; the “Content, stability study 1 day” value is 99.0%; the “Content, stability study 3 days” value was 99.8%; the “Content, stability study 7 days” value amounted to 100.8%. Moreover, the “Content, stability study 35 days” value in data set [1] (open, 40° C. 75% RH) is listed as 100.6%. In addition, in data set [1] (sealed, 25° C. 60% RH), the “Content, stability study 0 day” value is 100.9%; the “Content, stability study 1 day” value was 99.5%; the “Content, stability study 3 days” value amounted to 102.0%; the “Content, stability study 7 days” value is 100.5%. In data set [1] (sealed, 25° C. 60% RH), the “Content, stability study 14 days” value is 98.9% and the “Content, stability study 35 days” value is recorded as 102.2%. In addition, in data set [1] (sealed, 40° C. 75% RH), the “Content, stability study 0 day” value was 100.9%; the “Content, stability study 1 day” value is recorded as 99.6%; the “Content, stability study 3 days” value amounted to 102.7%; the “Content, stability study 7 days” value came out at 100.8%. In data set [1] (sealed, 40° C. 75% RH), the “Content, stability study 14 days” value was determined as 99.2% and the “Content, stability study 35 days” value is recorded as 102.7%. Besides, the absolute oral bioavailability in data set [2] is 0.93%.

The values above are taken from patent US10391103B2, “Ferroporphyrin solid dispersion and preparation method thereof” (Sinotherapeutics Inc., priority 2013, dated 2019).
